Measured values reported in publication PMC9898036, “VIP152 is a selective CDK9 inhibitor with pre-clinical in vitro and in vivo efficacy in chronic lymphocytic leukemia” (Leukemia, 2022).

Assays:
CDC2L2 = CDC2L2 (Homo sapiens, UniProt Q9UQ88); assay: KINOMEscan: CDC2L2; format: binding; details: 1000 nM, read-out: Percent Control
CDK2 = CDK2 (Homo sapiens, UniProt P24941); assay: KINOMEscan: CDK2; format: binding; details: 1000 nM, read-out: Percent Control
Purinergic P2X = assay: Eurofins Diversity Panel; format: binding; details: rabbit, Conc. 10 μM
SBK1 = SBK1 (Homo sapiens, UniProt Q52WX2); assay: KINOMEscan: SBK1; format: binding; details: 100 nM, read-out: Percent Control
ADCK4 = ADCK4 (Homo sapiens, UniProt Q96D53); assay: KINOMEscan: ADCK4; format: binding; details: 1000 nM, read-out: Percent Control
BRAF = BRAF (Homo sapiens, UniProt P15056); assay: KINOMEscan: BRAF; format: binding; details: 1000 nM, read-out: Percent Control
MEK4 = MEK4 (Homo sapiens, UniProt P45985); assay: KINOMEscan: MEK4; format: binding; details: 1000 nM, read-out: Percent Control
GRK7 = GRK7 (Homo sapiens, UniProt Q8WTQ7); assay: KINOMEscan: GRK7; format: binding; details: 1000 nM, read-out: Percent Control
EPHB3 = EPHB3 (Homo sapiens, UniProt P54753); assay: KINOMEscan: EPHB3; format: binding; details: 1000 nM, read-out: Percent Control
TRKB = TRKB (Homo sapiens, UniProt Q16620); assay: KINOMEscan: TRKB; format: binding; details: 100 nM, read-out: Percent Control
[1] = target: T1, CDK9 in complex with Cyclin K (Homo sapiens, UniProt P50750); assay: NanoBRET target engagement assay (HEK293); format: cell-based
T1 construct: host or cells: HEK293

CDKL2 = CDKL2 (Homo sapiens, UniProt Q92772); assay: KINOMEscan: CDKL2; format: binding; details: 1000 nM, read-out: Percent Control
[2] = target: JAK1(JH2domain-pseudokinase) (Homo sapiens, UniProt P23458); assay: KINOMEscan: JAK1(JH2domain-pseudokinase); format: binding; details: 1000 nM, read-out: Percent Control
MARK2 = MARK2 (Homo sapiens, UniProt Q7KZI7); assay: KINOMEscan: MARK2; format: binding; details: 1000 nM, read-out: Percent Control
RIOK1 = RIOK1 (Homo sapiens, UniProt Q9BRS2); assay: KINOMEscan: RIOK1; format: binding; details: 100 nM, read-out: Percent Control
RET = RET (Homo sapiens, UniProt P07949); assay: KINOMEscan: RET; format: binding; details: 100 nM, read-out: Percent Control
KIT(D816V) = KIT(D816V) (Homo sapiens, UniProt P10721, D816V); assay: KINOMEscan: KIT(D816V); format: binding; details: 1000 nM, read-out: Percent Control
MARK1 = MARK1 (Homo sapiens, UniProt Q9P0L2); assay: KINOMEscan: MARK1; format: binding; details: 1000 nM, read-out: Percent Control
BIKE = BIKE (Homo sapiens, UniProt Q9NSY1); assay: KINOMEscan: BIKE; format: binding; details: 1000 nM, read-out: Percent Control
WNK3 = WNK3 (Homo sapiens, UniProt Q9BYP7); assay: KINOMEscan: WNK3; format: binding; details: 100 nM, read-out: Percent Control
WNK3, sequence (Q9BYP7 whole entry): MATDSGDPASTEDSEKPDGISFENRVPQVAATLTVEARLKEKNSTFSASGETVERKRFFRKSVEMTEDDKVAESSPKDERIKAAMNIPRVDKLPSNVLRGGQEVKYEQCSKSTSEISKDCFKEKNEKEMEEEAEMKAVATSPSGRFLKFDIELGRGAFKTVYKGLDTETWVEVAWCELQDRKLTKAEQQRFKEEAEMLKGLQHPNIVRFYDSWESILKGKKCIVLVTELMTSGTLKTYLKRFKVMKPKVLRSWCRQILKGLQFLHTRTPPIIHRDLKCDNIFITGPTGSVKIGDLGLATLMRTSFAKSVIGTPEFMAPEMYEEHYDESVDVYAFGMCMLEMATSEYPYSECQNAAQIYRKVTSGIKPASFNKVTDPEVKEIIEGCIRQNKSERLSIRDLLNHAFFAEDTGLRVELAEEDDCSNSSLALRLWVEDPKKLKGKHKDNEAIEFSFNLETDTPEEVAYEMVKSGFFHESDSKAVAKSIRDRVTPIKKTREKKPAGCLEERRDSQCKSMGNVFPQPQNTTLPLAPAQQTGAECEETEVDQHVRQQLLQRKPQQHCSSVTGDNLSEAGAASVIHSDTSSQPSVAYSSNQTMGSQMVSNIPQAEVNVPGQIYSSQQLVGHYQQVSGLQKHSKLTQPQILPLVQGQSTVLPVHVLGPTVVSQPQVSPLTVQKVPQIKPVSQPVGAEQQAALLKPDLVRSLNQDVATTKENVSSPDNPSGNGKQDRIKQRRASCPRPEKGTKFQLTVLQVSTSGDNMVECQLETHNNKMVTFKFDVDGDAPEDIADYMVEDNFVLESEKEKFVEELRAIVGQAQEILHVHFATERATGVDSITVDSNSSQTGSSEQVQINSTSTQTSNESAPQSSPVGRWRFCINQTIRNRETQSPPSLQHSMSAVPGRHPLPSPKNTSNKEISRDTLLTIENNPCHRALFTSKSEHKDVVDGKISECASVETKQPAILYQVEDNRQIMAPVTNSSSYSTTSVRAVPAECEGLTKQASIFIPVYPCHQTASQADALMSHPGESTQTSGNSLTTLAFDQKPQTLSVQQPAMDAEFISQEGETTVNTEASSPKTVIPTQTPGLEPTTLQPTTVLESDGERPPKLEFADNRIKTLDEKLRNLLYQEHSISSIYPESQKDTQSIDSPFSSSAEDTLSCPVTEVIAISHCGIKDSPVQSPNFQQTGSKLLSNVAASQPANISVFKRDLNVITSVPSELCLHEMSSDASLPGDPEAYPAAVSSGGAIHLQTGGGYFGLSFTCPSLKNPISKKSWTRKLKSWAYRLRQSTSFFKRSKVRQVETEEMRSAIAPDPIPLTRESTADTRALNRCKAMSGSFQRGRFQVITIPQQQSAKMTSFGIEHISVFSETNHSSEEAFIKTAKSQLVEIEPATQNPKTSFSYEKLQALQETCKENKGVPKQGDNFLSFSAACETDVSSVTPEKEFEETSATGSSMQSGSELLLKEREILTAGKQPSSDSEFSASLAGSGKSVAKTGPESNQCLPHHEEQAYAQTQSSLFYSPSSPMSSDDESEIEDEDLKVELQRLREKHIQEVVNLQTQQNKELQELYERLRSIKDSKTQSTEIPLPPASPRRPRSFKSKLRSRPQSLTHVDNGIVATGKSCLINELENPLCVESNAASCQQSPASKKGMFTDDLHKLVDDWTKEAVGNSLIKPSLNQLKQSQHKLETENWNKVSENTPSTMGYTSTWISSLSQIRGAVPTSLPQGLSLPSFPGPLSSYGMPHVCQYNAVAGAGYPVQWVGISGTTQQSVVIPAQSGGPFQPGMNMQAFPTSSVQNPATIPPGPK

WEE1 = WEE1 (Homo sapiens, UniProt P30291); assay: KINOMEscan: WEE1; format: binding; details: 100 nM, read-out: Percent Control
Adrenergic β2 = Adrenergic β2 (Homo sapiens, UniProt P07550); assay: Eurofins Diversity Panel; format: binding; details: hum, Conc. 10 μM
Bradykinin B2 = Bradykinin B2 (Homo sapiens, UniProt P30411); assay: Eurofins Diversity Panel; format: binding; details: hum, Conc. 10 μM
Melatonin MT1 = Melatonin MT1 (Homo sapiens, UniProt P48039); assay: Eurofins Diversity Panel; format: binding; details: hum, Conc. 10 μM
Melatonin MT1, sequence (P48039 whole entry): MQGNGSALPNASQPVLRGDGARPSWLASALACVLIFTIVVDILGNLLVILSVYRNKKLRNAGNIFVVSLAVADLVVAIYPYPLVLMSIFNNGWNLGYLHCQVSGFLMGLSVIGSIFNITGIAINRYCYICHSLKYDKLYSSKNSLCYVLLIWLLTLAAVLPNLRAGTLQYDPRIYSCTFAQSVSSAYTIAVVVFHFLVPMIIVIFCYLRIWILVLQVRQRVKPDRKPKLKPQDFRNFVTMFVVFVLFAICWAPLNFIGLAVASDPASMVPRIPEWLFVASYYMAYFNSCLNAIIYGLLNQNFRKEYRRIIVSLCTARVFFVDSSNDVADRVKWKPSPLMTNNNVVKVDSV

BMPR1B = BMPR1B (Homo sapiens, UniProt O00238); assay: KINOMEscan: BMPR1B; format: binding; details: 1000 nM, read-out: Percent Control
TSSK1B = TSSK1B (Homo sapiens, UniProt Q9BXA7); assay: KINOMEscan: TSSK1B; format: binding; details: 100 nM, read-out: Percent Control
WNK2 = WNK2 (Homo sapiens, UniProt Q9Y3S1); assay: KINOMEscan: WNK2; format: binding; details: 100 nM, read-out: Percent Control
TIE1 = TIE1 (Homo sapiens, UniProt P35590); assay: KINOMEscan: TIE1; format: binding; details: 100 nM, read-out: Percent Control
MRCKB = MRCKB (Homo sapiens, UniProt Q9Y5S2); assay: KINOMEscan: MRCKB; format: binding; details: 1000 nM, read-out: Percent Control
CDK7/Cyclin H = CDK7/Cyclin H (Homo sapiens, UniProt P50613); assay: NanoBRET target engagement assay (HEK293); format: cell-based; parameters: host or cells: HEK293
[3] = target: Serotonin (5-Hydroxytryptamine) 5-HT3) (Homo sapiens, UniProt P46098); assay: Eurofins Diversity Panel; format: binding; details: hum, Conc. 10 μM
Serotonin (5-Hydroxytryptamine) 5-HT3), sequence (P46098 24-478): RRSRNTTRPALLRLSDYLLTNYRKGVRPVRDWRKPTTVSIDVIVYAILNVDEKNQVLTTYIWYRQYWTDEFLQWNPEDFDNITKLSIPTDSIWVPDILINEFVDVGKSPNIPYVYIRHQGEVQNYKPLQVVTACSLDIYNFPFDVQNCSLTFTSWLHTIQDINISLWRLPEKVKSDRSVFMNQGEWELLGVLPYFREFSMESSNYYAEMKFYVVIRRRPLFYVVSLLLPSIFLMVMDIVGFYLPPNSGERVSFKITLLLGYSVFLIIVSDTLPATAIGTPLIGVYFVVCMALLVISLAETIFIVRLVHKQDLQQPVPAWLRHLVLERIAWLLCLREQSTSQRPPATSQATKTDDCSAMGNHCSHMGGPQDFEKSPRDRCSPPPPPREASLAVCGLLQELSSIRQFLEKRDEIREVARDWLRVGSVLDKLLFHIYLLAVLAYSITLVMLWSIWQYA

MET(Y1235D) = MET(Y1235D) (Homo sapiens, UniProt P08581, Y1235D); assay: KINOMEscan: MET(Y1235D); format: binding; details: 1000 nM, read-out: Percent Control
[4] = target: RSK2(Kin.Dom.2-C-terminal) (Homo sapiens, UniProt P51812); assay: KINOMEscan: RSK2(Kin.Dom.2-C-terminal); format: binding; details: 100 nM, read-out: Percent Control
MET = MET (Homo sapiens, UniProt P08581); assay: KINOMEscan: MET; format: binding; details: 1000 nM, read-out: Percent Control
MET, sequence (P08581 25-1390): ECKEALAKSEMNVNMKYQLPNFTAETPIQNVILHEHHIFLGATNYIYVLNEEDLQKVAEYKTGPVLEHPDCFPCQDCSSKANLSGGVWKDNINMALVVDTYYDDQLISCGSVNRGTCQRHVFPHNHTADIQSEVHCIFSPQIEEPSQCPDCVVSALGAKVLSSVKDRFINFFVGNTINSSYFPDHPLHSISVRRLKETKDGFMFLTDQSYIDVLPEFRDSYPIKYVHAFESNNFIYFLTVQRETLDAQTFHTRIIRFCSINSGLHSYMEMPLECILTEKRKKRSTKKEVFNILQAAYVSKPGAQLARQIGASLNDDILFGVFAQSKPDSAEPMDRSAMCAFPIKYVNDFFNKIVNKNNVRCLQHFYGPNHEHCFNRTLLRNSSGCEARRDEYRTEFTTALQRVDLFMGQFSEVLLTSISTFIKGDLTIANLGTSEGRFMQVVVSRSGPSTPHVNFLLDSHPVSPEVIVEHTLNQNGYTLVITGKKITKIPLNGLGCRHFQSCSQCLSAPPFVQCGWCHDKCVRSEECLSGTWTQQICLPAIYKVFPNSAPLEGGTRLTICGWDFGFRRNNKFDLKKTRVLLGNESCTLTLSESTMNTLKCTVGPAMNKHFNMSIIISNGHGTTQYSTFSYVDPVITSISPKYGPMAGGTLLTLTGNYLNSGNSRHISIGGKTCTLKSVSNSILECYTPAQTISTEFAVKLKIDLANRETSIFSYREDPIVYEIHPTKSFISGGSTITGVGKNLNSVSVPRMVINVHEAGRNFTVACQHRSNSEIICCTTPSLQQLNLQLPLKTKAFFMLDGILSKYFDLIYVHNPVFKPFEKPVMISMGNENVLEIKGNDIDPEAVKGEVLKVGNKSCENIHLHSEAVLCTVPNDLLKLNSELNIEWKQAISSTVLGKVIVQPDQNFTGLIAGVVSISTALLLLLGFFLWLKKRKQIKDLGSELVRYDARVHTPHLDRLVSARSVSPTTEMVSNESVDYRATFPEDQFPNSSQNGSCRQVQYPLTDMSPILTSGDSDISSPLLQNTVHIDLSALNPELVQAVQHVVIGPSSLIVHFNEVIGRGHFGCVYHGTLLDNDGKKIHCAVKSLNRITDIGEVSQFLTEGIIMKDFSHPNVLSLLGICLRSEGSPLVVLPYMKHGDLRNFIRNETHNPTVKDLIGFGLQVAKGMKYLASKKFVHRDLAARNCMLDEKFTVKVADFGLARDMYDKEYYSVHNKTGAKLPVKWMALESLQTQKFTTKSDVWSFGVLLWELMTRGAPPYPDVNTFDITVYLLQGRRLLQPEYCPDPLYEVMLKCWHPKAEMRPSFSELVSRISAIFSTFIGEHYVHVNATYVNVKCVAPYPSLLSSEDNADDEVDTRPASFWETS

TAOK3 = TAOK3 (Homo sapiens, UniProt Q9H2K8); assay: KINOMEscan: TAOK3; format: binding; details: 100 nM, read-out: Percent Control
TAOK3, sequence (Q9H2K8 whole entry): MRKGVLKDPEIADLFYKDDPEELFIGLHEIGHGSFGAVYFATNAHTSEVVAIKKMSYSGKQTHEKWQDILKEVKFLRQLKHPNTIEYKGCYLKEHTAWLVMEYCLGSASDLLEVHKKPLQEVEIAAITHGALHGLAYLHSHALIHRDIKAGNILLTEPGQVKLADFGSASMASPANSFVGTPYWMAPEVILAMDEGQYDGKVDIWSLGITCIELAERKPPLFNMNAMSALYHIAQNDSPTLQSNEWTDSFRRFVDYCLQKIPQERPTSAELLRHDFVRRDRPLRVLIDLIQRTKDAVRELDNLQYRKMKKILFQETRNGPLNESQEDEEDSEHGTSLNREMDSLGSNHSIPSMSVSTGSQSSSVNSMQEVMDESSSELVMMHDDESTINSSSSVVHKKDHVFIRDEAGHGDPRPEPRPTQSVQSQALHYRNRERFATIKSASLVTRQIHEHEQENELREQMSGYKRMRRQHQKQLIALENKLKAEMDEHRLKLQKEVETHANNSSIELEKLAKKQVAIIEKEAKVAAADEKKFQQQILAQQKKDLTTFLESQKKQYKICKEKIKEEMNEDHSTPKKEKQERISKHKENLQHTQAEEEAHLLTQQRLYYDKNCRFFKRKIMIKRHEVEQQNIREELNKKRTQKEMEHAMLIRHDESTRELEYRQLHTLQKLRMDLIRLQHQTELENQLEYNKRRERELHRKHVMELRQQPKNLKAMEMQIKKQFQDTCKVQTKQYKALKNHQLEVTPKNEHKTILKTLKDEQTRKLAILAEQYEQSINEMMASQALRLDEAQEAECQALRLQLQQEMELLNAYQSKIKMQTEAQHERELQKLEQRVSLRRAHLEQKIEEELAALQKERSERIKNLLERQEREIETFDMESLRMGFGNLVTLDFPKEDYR

FLT3 = FLT3 (Homo sapiens, UniProt P36888); assay: KINOMEscan: FLT3; format: binding; details: 1000 nM, read-out: Percent Control
LOK = LOK (Homo sapiens, UniProt O94804); assay: KINOMEscan: LOK; format: binding; details: 1000 nM, read-out: Percent Control
MERTK = MERTK (Homo sapiens, UniProt Q12866); assay: KINOMEscan: MERTK; format: binding; details: 1000 nM, read-out: Percent Control
Bradykinin B1 = Bradykinin B1 (Homo sapiens, UniProt P46663); assay: Eurofins Diversity Panel; format: binding; details: hum, Conc. 10 μM
DAPK1 = DAPK1 (Homo sapiens, UniProt P53355); assay: KINOMEscan: DAPK1; format: binding; details: 1000 nM, read-out: Percent Control
VPS34 = VPS34 (Homo sapiens, UniProt Q8NEB9); assay: KINOMEscan: VPS34; format: binding; details: 100 nM, read-out: Percent Control

For `COc1cc(F)ccc1-c1cc(Nc2cc(CS(C)(=N)=O)ccn2)ncc1F` (centres unmarked) [VIP152], the remaining binding at 1 µM (CDC2L2) was 78%, the remaining binding at 1 µM (CDK2) was 51% and the “% Inh.” value (Purinergic P2X) was 11%. For the same compound, the remaining binding at 0.1 µM (SBK1) was 95%, the remaining binding at 1 µM (ADCK4) was 82% and the remaining binding at 1 µM (BRAF) was 55%. For the same compound, the remaining binding at 1 µM (MEK4) was 89%, the remaining binding at 1 µM (GRK7) was 87% and the remaining binding at 1 µM (EPHB3) was 100%. For the same compound, the remaining binding at 0.1 µM (TRKB) was 100%, the “potency versus the other inhibitors” value [1] was “higher potency” and the remaining binding at 1 µM (CDKL2) was 18%. The remaining binding at 1 µM [2] was 96%, the remaining binding at 1 µM (MARK2) was 81% and the remaining binding at 0.1 µM (RIOK1) was 100%. The remaining binding at 0.1 µM (RET) was 100%, the remaining binding at 1 µM (KIT(D816V)) was 88% and the remaining binding at 1 µM (MARK1) was 89%. The remaining binding at 1 µM (BIKE) was 38%, the remaining binding at 0.1 µM (WNK3) was 95% and the remaining binding at 0.1 µM (WEE1) was 98%. For the same compound, the inhibition at 10 µM (Adrenergic β2) was 3%, the inhibition at 10 µM (Bradykinin B2) was 9% and the inhibition at 10 µM (Melatonin MT1) was 6%. For the same compound, the remaining binding at 1 µM (BMPR1B) was 46%, the remaining binding at 0.1 µM (TSSK1B) was 78% and the remaining binding at 0.1 µM (WNK2) was 100%. For the same compound, the remaining binding at 0.1 µM (TIE1) was 100%, the remaining binding at 1 µM (MRCKB) was 59% and the “IC50 compared with other inhibitors” value (CDK7/Cyclin H) was “IC50 was higher than dinaciclib and KB-0742”. For the same compound, the inhibition at 10 µM [3] was -3%, the remaining binding at 1 µM (MET(Y1235D)) was 19% and the remaining binding at 0.1 µM [4] was 100%. For the same compound, the remaining binding at 1 µM (MET) was 26%, the remaining binding at 0.1 µM (TAOK3) was 88% and the remaining binding at 1 µM (FLT3) was 38%. It also gave a remaining binding at 1 µM (LOK) of 53%, a remaining binding at 1 µM (MERTK) of 58% and an inhibition at 10 µM (Bradykinin B1) of 1%. For the same compound, the remaining binding at 1 µM (DAPK1) was 87% and the remaining binding at 0.1 µM (VPS34) was 94%.
